Structures are written as SMILES. A value given as a limit tells only on which side of the number the result lay.

In one experiment the test system is HCV replicon cells. Nature of the experiment: Cell-based HCV replicon assay (replicon RNA level by real time PCR, Taqman). Particulars: Hepatitis C virus, 72 h, HCV replicon cells, harvested day 3, replicon RNA by real time PCR; given as number; read-out: EC90 (μM) range. Summed up:
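HCV replicon cells treated 3 days with 10 serial 2-fold compound dilutions (top 25 μM to 1 μM; 0.5% DMSO, 10% FBS). Replicon RNA quantified by multiplex Taqman RT-PCR (NS5B amplicon, GAPDH control); EC50 and EC90 = concentrations giving ΔCT of 1 and 3.2 over baseline.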
`CCOc1cc2cc(-c3c(C)nc(NCc4cc(OC)cc(OC)c4)nc3N[C@@H]3C[C@H](CO)[C@@H](O)[C@H]3O)oc2c(C)n1` [Example 36]: the EC90 (in general, the concentration at which the effect reaches the 90% level) was 0.01 µM.

For `CCCOc1cc2cc(-c3c(C)nc(NCCOC)nc3N[C@@H]3C[C@H](CO)[C@@H](O)[C@H]3O)oc2c(C)n1` [Example 35], the EC90 worked out at 0.1 µM.

Take `CCCOc1cc2cc(-c3c(C)nc(NCC(C)(C)C)nc3N[C@@H]3C[C@H](CO)[C@@H](O)[C@H]3O)oc2cn1` [Example 61]: the EC90 was greater than 1 µM.

As for `CCOc1cc2cc(-c3c(C)nc(NCC4CC4)nc3N[C@@H]3C[C@H](CO)[C@@H](O)C3)oc2c(C)n1` [Example 52], the EC90 was 0.3 µM.

The same experiment, now with this note: Hepatitis C virus, 72 h, HCV replicon cells, harvested day 3, replicon RNA by real time PCR; reported as range class; read-out: EC90 (μM) range.
On to `CN(C)c1nc(N[C@@H]2C[C@H](CO)[C@@H](O)[C@H]2O)c(-c2nc3ccccc3s2)c(-c2cccs2)n1` [Example 415], for which the 90% effect concentration (EC90) is greater than 5 µM.

`COc1cc2cc(-c3c(Cl)nc(NCC(F)(F)F)nc3N[C@@H]3C[C@H](CO)[C@@H](O)[C@H]3O)oc2cn1` [Example 22]: the EC90 is less than 0.5 µM.

For the molecule `CCOc1cc2cc(-c3c(C)nc(Nc4ccccc4)nc3N[C@@H]3C[C@H](CO)[C@@H](O)[C@H]3O)oc2c(C)n1` [Example 33], the EC90 is greater than 5 µM.

On to `CNc1ccc2sc(-c3c(Cl)nc(N)nc3N[C@@H]3C[C@H](CO)[C@@H](O)[C@H]3O)nc2c1` [Example 194], for which the EC90 is less than 0.5 µM.

`CCOc1ccc2nc(-c3c(C)nc(N(C)C)nc3N[C@@H]3C[C@H](CO)[C@@H](O)[C@H]3O)sc2c1` [Example 207]: the EC90 was greater than 5 µM.

As for `OCCNc1nc(Cl)c(-c2nc3ccccc3s2)c(N[C@@H]2C[C@H](CO)[C@@H](O)[C@H]2O)n1` [Example 212], the EC90 was less than 0.5 µM.

For the molecule `Nc1nc(Cl)c(-c2ccccc2Oc2ccccc2)c(N[C@@H]2C[C@H](CO)[C@@H](O)[C@H]2O)n1` [Example 103], the EC90 is greater than 5 µM.

Still in this experiment, the particulars now being: Hepatitis C virus, 72 h, HCV replicon cells, harvested on day 3, replicon RNA by real time PCR; calculated EC90 reported as range class; read-out: EC90 (μM) range.
For `Cc1nc(NCc2cccs2)nc(N[C@@H]2C[C@H](CO)[C@H]3OC(C)(C)O[C@H]32)c1-c1nc2ccccc2s1` [Example 328], the EC90 was less than 0.5 µM.

Regarding `Cc1nc(NCC2CCCO2)nc(N[C@@H]2C[C@H](CO)[C@@H](O)[C@H]2O)c1-c1nc2ccccc2s1` (stereo partly drawn) [Example 325], the EC90 was less than 0.5 µM.

Turning to `CCc1cc2cc(-c3c(Cl)nc(NCCOC)nc3N[C@@H]3C[C@H](CO)[C@@H](O)[C@H]3O)oc2cn1` [Example 501], the EC90 was less than 0.5 µM.

Regarding `Cc1csc(CNc2nc(C)c(-c3nc4ccccc4s3)c(N[C@@H]3C[C@H](CO)[C@@H](O)[C@H]3O)n2)n1` [Example 707], the EC90 was less than 0.5 µM.

Take `Cc1ccc(CNc2nc(C)c(-c3nc4ccccc4s3)c(N[C@@H]3C[C@H](CO)[C@H]4OC(C)(C)O[C@H]43)n2)s1` [Example 496]: the EC90 is less than 0.5 µM.

As to `COCc1cc2cc(-c3c(C)nc(NCc4nccs4)nc3N[C@@H]3C[C@H](CO)[C@H]4OC(C)(C)O[C@H]43)oc2cn1` [Example 339], the EC90 is less than 0.5 µM.

`CCc1cc2cc(-c3c(C)nc(NCCOC)nc3N[C@@H]3C[C@H](CO)[C@@H](O)[C@H]3O)oc2cn1` [Example 508]: the EC90 was less than 0.5 µM.

The experiment is the same for the next values; noted with them: Hepatitis C virus, 72 h, HCV replicon cells, replicon RNA level by real time PCR (Taqman), day 3; calculated EC90; read-out: EC90 (μM) range.
As for `Cc1nc(NCC(F)(F)F)nc(N[C@@H]2C[C@H](CO)[C@@H](O)[C@H]2O)c1-c1nc2ncccc2o1` [Example 2008], the EC90 was 0.5 to 5 µM.

Staying with this experiment, now noted: Hepatitis C virus, 72 h, HCV replicon cells, replicon RNA level by real time PCR (Taqman), harvested on day 3; calculated EC90 reported as range class; read-out: EC90 (μM) range.
For the molecule `Cc1nc(NCc2ccc3c(c2)OCO3)nc(N[C@@H]2C[C@H](CO)[C@@H](O)[C@H]2O)c1-c1nc2ccccc2s1` [Example 1203], the EC90 is 0.5 to 5 µM.

As to `CNc1nc(C)c(-c2nc3cnccc3s2)c(N[C@@H]2C[C@H](CO)[C@@H](O)[C@H]2O)n1` [Example 1326], the EC90 was less than 0.5 µM.

Take `COc1cc(CNc2nc(C)c(-c3nc4cnccc4s3)c(N[C@@H]3C[C@H](CO)[C@@H](O)[C@H]3O)n2)cc(OC)c1` [Example 537]: the EC90 was less than 0.5 µM.

Turning to `Cc1nc(NCC(F)(F)F)nc(N[C@@H]2C[C@H](CN(C)C)[C@@H](O)[C@H]2O)c1-c1nc2ccccc2s1` [Example 1016], the EC90 is 0.5 to 5 µM.

With `COc1ccc(CNc2nc(C)c(-c3nc4ccccc4s3)c(N[C@@H]3CC[C@@H](O)[C@H]3O)n2)cc1OC` [Example 1205], the 90% effect concentration (EC90) is 0.5 to 5 µM.

On to `Cc1nc(Nc2cccc(F)c2)nc(N[C@@H]2C[C@H](CO)[C@@H](O)[C@H]2O)c1-c1nc2cnccc2s1` [Example 1056], for which the EC90 was less than 0.5 µM.

In the case of `CC[C@@H](C)Nc1nc(C)c(-c2nc3cnccc3s2)c(N[C@@H]2C[C@H](CO)[C@@H](O)[C@H]2O)n1` [Example 1316], the EC90 is less than 0.5 µM.

Take `COc1cnccc1Nc1nc(C)c(-c2nc3ccccc3s2)c(N[C@@H]2C[C@H](CO)[C@@H](O)[C@H]2O)n1` [Example 1131]: the EC90 was greater than 5 µM.

As for `COc1cccc(OC)c1Nc1nc(C)c(-c2nc3ccccc3s2)c(N[C@@H]2C[C@H](CO)[C@@H](O)[C@H]2O)n1` [Example 1125], the EC90 was greater than 5 µM.

For the molecule `Cc1nc(NCc2cccc(N)c2)nc(N[C@@H]2C[C@H](CO)[C@H]3OC(C)(C)O[C@H]32)c1-c1nc2ccccc2s1` [Example 1111], the EC90 is 0.5 to 5 µM.

Regarding `Cc1cc2sc(-c3c(C)nc(NCC4CC4)nc3N[C@@H]3C[C@H](CO)[C@@H](O)[C@H]3O)nc2c(C)n1` [Example 1134], the EC90 was less than 0.5 µM.

For `CCNc1nc(C)c(-c2nc3ccccc3s2)c(N[C@@H]2CC(C(C)(F)F)[C@@H](O)[C@H]2O)n1` (single isomer, unassigned) [Example 1074], the EC90 is 0.5 to 5 µM.

As to `Cc1nc(Nc2ncco2)nc(N[C@@H]2C[C@H](CO)[C@@H](O)[C@H]2O)c1-c1nc2ccccc2s1` [Example 1226], the EC90 is greater than 5 µM.

For the molecule `[2H]C([2H])(Nc1nc(C)c(-c2nc3ccccc3s2)c(N[C@@H]2C[C@H](CO)[C@@H](O)[C@H]2O)n1)C(F)(F)F` [Example 1250], the EC90 was 0.5 to 5 µM.

With `CCOCCNc1nc(C)c(-c2nc3cc(OC)ccc3s2)c(N[C@@H]2C[C@H](CO)[C@@H](O)[C@H]2O)n1` [Example 1008], the EC90 is 0.5 to 5 µM.

As to `CCOc1nc(C)cc2cc(-c3c(C)nc(NCC4CC4)nc3N[C@@H]3C[C@H](CO)[C@@H](O)[C@H]3O)oc12` [Example 1238], the EC90 was 0.5 to 5 µM.

Take `Cc1nc(NCC(F)(F)F)nc(N[C@H]2C[C@@H](CO)[C@H](O)[C@@H]2O)c1-c1nc2ccccc2s1` [Example 1060]: the EC90 was greater than 5 µM.

On to `COc1cc(OC)cc([C@@H](C)Nc2nc(C)c(-c3nc4cnccc4s3)c(N[C@@H]3C[C@H](CO)[C@@H](O)[C@H]3O)n2)c1` [Example 1307], for which the EC90 was less than 0.5 µM.

Still in this experiment, the particulars now being: Hepatitis C virus, 72 h, HCV replicon cells, replicon RNA level by real time PCR, harvested day 3; read-out: EC90 (μM) range.
Consider `Cc1nc(NCC(F)(F)F)nc(N[C@@H]2C[C@H](C(C)O)[C@@H](O)[C@H]2O)c1-c1nc2ccccc2s1` (stereo partly drawn) [Example 1632], for which the 90% effect concentration (EC90) was less than 0.5 µM.

In the case of `Cc1ccsc1CCNc1nc(C)c(-c2nc3ccccc3s2)c(N[C@@H]2C[C@H](CO)[C@@H](O)[C@H]2O)n1` [Example 1706], the EC90 was 0.5 to 5 µM.

`Cc1nc(N[C@H](C)c2ccc(OC(F)(F)F)cc2)nc(N[C@@H]2C[C@H](C(C)O)[C@@H](O)[C@H]2O)c1-c1nc2c(C)nccc2s1` (stereo partly drawn) [Example 1399]: the EC90 is less than 0.5 µM.

`Cc1nc(N)nc(N[C@@H]2C[C@H](COS(C)(=O)=O)[C@@H](O)[C@H]2O)c1-c1nc2ccccc2s1` [Example 1905]: the EC90 lay within 0.5 to 5 µM.

On to `Cc1nc(CN)nc(N[C@@H]2C[C@H](CO)[C@@H](O)[C@H]2O)c1-c1nc2ccccc2s1` [Example 1916], for which the EC90 is greater than 5 µM.

Consider `Cc1nc(N)nc(N[C@@H]2C[C@H](CO)[C@@H](O)[C@H]2O)c1-c1nc2c(C)nccc2s1` [Example 1534], for which the EC90 was greater than 5 µM.

Turning to `CCC1(O)[C@H](O)[C@@H](CO)C[C@H]1Nc1nc(NCC2CC2)nc(C)c1-c1nc2cnccc2s1` (stereo partly drawn) [Example 1385], the EC90 is less than 0.5 µM.

`CCCc1nccc2sc(-c3c(C)nc(N[C@H](C)C4CC4)nc3N[C@@H]3C[C@H](Cn4ccnn4)[C@@H](O)[C@H]3O)nc12` [Example 1386]: the EC90 was less than 0.5 µM.

Turning to `CCOc1cc2sc(-c3c(C)nc(NCC4CC4)nc3N[C@@H]3C[C@H](CO)[C@@H](O)[C@H]3O)nc2c(C)n1` [Example 1374], the EC90 was 0.5 to 5 µM.

Turning to `COc1ccc([C@H](Nc2nc(C)c(-c3nc4c(C)nccc4s3)c(N[C@@H]3C[C@H](CO)[C@@H](O)[C@H]3O)n2)C(F)(F)F)cc1` [Example 1540], the EC90 was less than 0.5 µM.

Consider `Cc1nc(NCC2CC2)nc(N)c1-c1nc2cnccc2s1` [Example 1510], for which the EC90 was 0.5 to 5 µM.

Consider `Cc1nc(NC2CC2)nc(N[C@@H]2C[C@H](CO)[C@@H](O)[C@H]2O)c1-c1nc2c(C)nccc2s1` [Example 1543], for which the EC90 was less than 0.5 µM.

In the case of `Cc1nc(NCC(F)(F)F)nc(N[C@@H]2C[C@H](CNS(=O)(=O)C3CC3)[C@@H](O)[C@H]2O)c1-c1nc2ccccc2s1` [Example 1513], the EC90 is 0.5 to 5 µM.

With `CCOCCNc1nc(C)c(-c2nc3c(CC)nccc3s2)c(N[C@@H]2C[C@H](CO)[C@@H](O)[C@H]2O)n1` [Example 1504], the EC90 is less than 0.5 µM.

For `Cc1nc(NCc2c(F)cccc2F)nc(N[C@@H]2CC[C@@H](O)[C@@]2(C)O)c1-c1nc2c(C)nccc2s1` [Example 1814], the EC90 is less than 0.5 µM.

Regarding `Cc1nc(C(N)=O)nc(N[C@@H]2C[C@H](CO)[C@@H](O)[C@H]2O)c1-c1nc2ccccc2s1` [Example 1903], the EC90 is greater than 5 µM.

Turning to `COC[C@@H](Nc1nc(C)c(-c2nc3c(C)nccc3s2)c(N[C@@H]2C[C@H](CO)[C@@H](O)[C@H]2O)n1)c1ccccc1` [Example 1364], the EC90 lay in the range of 0.5 to 5 µM.

The values are drawn from patent US8697694B2, “Substituted pyridine and pyrimidine derivatives and their use in treating viral infections” (priority 2008, dated 2014).
